Results published in patent publication US20260223593A1, “Organic Compound, Light-Emitting Device, Display Apparatus, And Electronic Appliance” (Semiconductor Energy Laboratory Co., Ltd., priority 2023, published 2026).
Converted amounts (≈) assume the structure as drawn.

Assay: Solubility test of Ph3TP-hpp by LC/MS analysis (water solubility)
Type: physicochemical
Experimental: In the LC/MS analysis, LC (liquid chromatography) separation was carried out with Acquity UPLC (registered trademark) produced by Waters Corporation, and MS analysis (mass spectrometry) was carried out with Xevo G2 Tof MS produced by Waters Corporation. Acquity UPLC BEH C8 (2.1×100 mm, 1.7 μm) was used as a column for the LC separation. Acetonitrile was used for Mobile Phase A and a 0.1% aqueous solution of formic acid was used for Mobile Phase B. The injection amount of the sample was 5.0 μL. Note that in the analysis, the wavelength of a photodiode array detector was set to 246 nm±1 nm.
In a 5-mL sample bottle, 1 mg of Ph3TP-hpp was put and 2 mL of toluene was added thereto, and then this mixture was irradiated with ultrasonic waves for five minutes. After it was confirmed that the solid was completely dissolved, this solution was diluted by 2.5 times with acetonitrile, whereby the concentration of the solution was adjusted to 200 mg/L. This solution was diluted with acetonitrile, whereby solutions with concentrations of 20 mg/L, 10 mg/L, and 4 mg/L were prepared. The prepared solutions were subjected to LC/MS analysis, and the peak area values derived from Ph3TP-hpp, which were obtained at the respective solution concentrations, were used to form calibration curves.
Next, the water solubility of Ph3TP-hpp was measured.
In a 5-mL sample bottle, 1 mg of Ph3TP-hpp was put and 1 mL of water was added thereto, and then this mixture was irradiated with ultrasonic waves for five minutes. This mixture was filtered through a membrane filter to remove the solid, and the obtained filtrate was diluted by five times with acetonitrile. The obtained solution was subjected to LC/MS analysis.

c1ccc(-c2cc(-c3cccc(N4CCCN5CCCN=C54)c3)c(-c3ccccc3)c(-c3ccccc3)c2-c2ccccc2)cc1 [Ph3TP-hpp, 1-(3′,4′,5′-triphenyl-1,1′:2′,1″-terphenyl-3-yl)-1,3,4,6,7,8-hexahydro-2H-pyrimide[1,2-a]pyrimidine]
solubility of Ph3TP-hpp dissolved in 1 mL of water (1 mg in 1 mL of water, ultrasonic waves five minutes, membrane filtered, filtrate by LC/MS against calibration curve): 0.031 mg | solubility at 5 min (thermodynamic from solid, water, from 0.031 mg in 1 mL, read-out: weight fraction of the water solubility): 31 µg/mL (≈ 52 µM) | water solubility (in words) (water, LC/MS solubility test): low water solubility
